Experimental data: patent US20240299504A1, “COMPOSITIONS AND METHODS FOR TREATING ALZHEIMERS DISEASE” (priority 2023, published 2024)

Test system: 5×FAD mice
Experiment: Y-maze test
Type: in vivo, mouse
Experimental: Parathyroid hormone (human) was purchased from TOCRIS Bioscience (Cat #3011/1, Abingdon, United Kingdom). WT or 5×FAD mice (both male and female) were treated with PTH1-34 intermittently [once daily injection of hPTH1-34 (50 μg/Kg) or vehicle (0.9% sodium chloride) (as a control) by subcutaneous injection, starting at 2-MO, 5 days per week] as described previously. Mice were then subjected to behavioral tests and sacrificed for examinations of their bone and brain phenotypes at the indicated ages.
Mice (female and male) at the age of ˜5-MO were subjected to behavioral studies. The experimental procedures are described as previously. […] The total arm entries and the number of tri-ads were recorded to quantify the percentage of spontaneous alternation. For novel object recognition (NOR), which tests mouse's memory ability for a novel object, 20 min were recorded to analyze the time to explore the old object vs. the new object of each mouse. […] During test trials, one of the objects was replaced with a new object and mice were free to explore for another 20 min, and the time spent exploring the new object and the old object was recorded. The discrimination index is quantified as the novelty object preference, which is the time spent exploring the new object minus the time exploring the old object over the total exploration time.

Structure (SMILES): CC[C@H](C)[C@H](NC(=O)[C@H](CCC(=O)O)NC(=O)[C@H](CO)NC(=O)[C@@H](NC(=O)[C@@H](N)CO)C(C)C)C(=O)N[C@@H](CCC(N)=O)C(=O)N[C@@H](CC(C)C)C(=O)N[C@@H](CCSC)C(=O)N[C@@H](Cc1cnc[nH]1)C(=O)N[C@@H](CC(N)=O)C(=O)N[C@@H](CC(C)C)C(=O)NCC(=O)N[C@@H](CCCCN)C(=O)N[C@@H](Cc1cnc[nH]1)C(=O)N[C@@H](CC(C)C)C(=O)N[C@@H](CC(N)=O)C(=O)N[C@@H](CO)C(=O)N[C@@H](CCSC)C(=O)N[C@@H](CCC(=O)O)C(=O)N[C@@H](CCCN=C(N)N)C(=O)N[C@H](C(=O)N[C@@H](CCC(=O)O)C(=O)N[C@@H](Cc1c[nH]c2ccccc12)C(=O)N[C@@H](CC(C)C)C(=O)N[C@@H](CCCN=C(N)N)C(=O)N[C@@H](CCCCN)C(=O)N[C@@H](CCCCN)C(=O)N[C@@H](CC(C)C)C(=O)N[C@@H](CCC(N)=O)C(=O)N[C@@H](CC(=O)O)C(=O)N[C@H](C(=O)N[C@@H](Cc1cnc[nH]1)C(=O)N[C@@H](CC(N)=O)C(=O)N[C@@H](Cc1ccccc1)C(=O)O)C(C)C)C(C)C [PTH1-34]
- Y maze spontaneous alternation (5×FAD female mice ~5-MO vs Veh-treated 5×FAD female): an increase in spontaneous alternation
- Y maze spontaneous alternation (5×FAD male mice ~5-MO vs Veh): positive effect on the spontaneous alternation
